Results on 17 compounds are retold here after ChEMBL document CHEMBL3098037, “Evaluation of benzoic acid derivatives as sirtuin inhibitors” (Bioorg Med Chem Lett, 2014).

pIC50: −log10 of the molar value. ≈ marks a conversion by molar mass, not a printed value. Calls of active or inactive are those of the source. No cut-off for these calls is given here.

Test [1] is described as follows: Cytotoxicity against human MIAPaCa2 cells. It counts as functional, cell-based. The conditions noted are these: MIA PaCa-2.
Test [2] deals with NCI-H460. Nature of the test: Cytotoxicity against human NCI-H460 cells. Format: functional, cell-based.
Test [3] deals with A549. As to the kind of experiment: Cytotoxicity against human A549 cells. It counts as functional, cell-based.
For test [4], the system named is DU-145. As to the kind of experiment: Cytotoxicity against human DU145 cells. Format: functional, cell-based.
Test [5] deals with Saccharomyces cerevisiae. As to the kind of experiment: Inhibition of Sir2p in yeast DMY2844 assessed as growth inhibition at 800 uM after 48 hrs.
The test system of test [6] is Saccharomyces cerevisiae. As to the kind of experiment: Inhibition of Sir2p in yeast DMY2844 assessed as growth inhibition after 48 hrs.
Test [7] concerns the target T1, NAD-dependent protein deacetylase sirtuin-2 (Homo sapiens) (UniProt Q8IXJ6).
T1 sequence (whole entry): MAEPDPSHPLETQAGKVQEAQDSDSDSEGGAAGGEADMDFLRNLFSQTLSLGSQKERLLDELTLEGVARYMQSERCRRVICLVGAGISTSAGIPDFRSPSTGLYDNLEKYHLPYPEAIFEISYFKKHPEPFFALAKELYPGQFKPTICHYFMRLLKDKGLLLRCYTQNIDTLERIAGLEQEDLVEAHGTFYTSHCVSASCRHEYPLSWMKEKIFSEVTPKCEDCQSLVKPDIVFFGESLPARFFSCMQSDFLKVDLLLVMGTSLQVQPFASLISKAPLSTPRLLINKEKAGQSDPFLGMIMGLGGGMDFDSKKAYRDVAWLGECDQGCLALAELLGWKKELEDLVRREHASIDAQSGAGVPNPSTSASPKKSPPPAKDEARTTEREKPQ
Nature of the test: Inhibition of SIRT2 (unknown origin) at 1.6 mM by fluorescence assay.

Test [8] concerns the target T2, NAD-dependent protein deacetylase sirtuin-1 (Homo sapiens) (UniProt Q96EB6).
T2 sequence (whole entry): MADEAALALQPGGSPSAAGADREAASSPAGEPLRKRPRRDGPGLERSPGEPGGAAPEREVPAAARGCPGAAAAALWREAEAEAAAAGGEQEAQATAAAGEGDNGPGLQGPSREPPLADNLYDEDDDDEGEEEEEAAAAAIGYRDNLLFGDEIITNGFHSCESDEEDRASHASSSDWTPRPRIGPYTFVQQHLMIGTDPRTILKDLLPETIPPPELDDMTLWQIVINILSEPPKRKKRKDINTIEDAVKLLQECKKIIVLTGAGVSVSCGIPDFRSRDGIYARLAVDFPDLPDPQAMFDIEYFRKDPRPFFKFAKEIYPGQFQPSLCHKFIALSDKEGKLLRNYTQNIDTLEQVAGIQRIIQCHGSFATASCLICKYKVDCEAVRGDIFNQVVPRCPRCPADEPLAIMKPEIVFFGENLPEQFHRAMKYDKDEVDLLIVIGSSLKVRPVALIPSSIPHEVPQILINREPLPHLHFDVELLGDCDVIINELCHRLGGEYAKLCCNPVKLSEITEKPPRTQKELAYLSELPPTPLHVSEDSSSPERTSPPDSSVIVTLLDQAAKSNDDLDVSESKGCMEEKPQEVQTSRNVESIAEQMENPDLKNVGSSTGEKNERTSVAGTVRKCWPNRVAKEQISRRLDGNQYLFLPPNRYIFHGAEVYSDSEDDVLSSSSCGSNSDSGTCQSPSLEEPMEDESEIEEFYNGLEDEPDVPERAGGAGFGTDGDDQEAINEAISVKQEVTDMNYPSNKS
As to the kind of experiment: Inhibition of SIRT1 (unknown origin) at 1.6 mM by fluorescence assay.

As for `CC[n+]1c(C=CC=C2N(C)c3ccccc3C2(C)C)sc2ccccc21`, the pIC50 in test [1], in test [2], in test [3] and in test [4] was 8.00 throughout.
As for `CN(C)c1ccc(S(=O)(=O)O)cc1`, in test [5], the inhibition result is “inactive”.
`Nc1ccc(C(=O)O)cc1`: the MIC in test [6] was 800 µM (≈ 110 µg/mL).
The same measure, in the same setting: the result for `Cc1ccc(C(=O)O)cc1` reads 800 µM (≈ 109 µg/mL).
With `CN(C)c1cccc(C(=O)O)c1`, in test [5], the inhibition result was “inactive”.
Still for that read-out and setting: the result for `CN(C)c1ccccc1` reads “inactive”.
Regarding `COC(=O)c1ccc(N(C)C)cc1`, the MIC in test [6] was found to be 400 µM (≈ 71.7 µg/mL).
`C[N+](C)(C)c1ccc(C(=O)[O-])cc1`: in test [5], the inhibition result is “inactive”.
On to `CN(C)c1ccc(C(=O)O)cc1`, for which the inhibition amounted to 30.3% in test [7] and 25.3% in test [8]. For the same compound, in test [6], the MIC is 200 µM (≈ 33 µg/mL).
Regarding `CN(C)c1ccc([N+](=O)[O-])cc1`, the inhibition entry in test [5] was “inactive”.
On the same count and under the same terms, the result for `CN(C)c1ccc(C(N)=O)cc1` reads “inactive”; that for `O=C(O)c1ccccc1`, “inactive”.
As for `CC(C)(C)c1ccc(C(=O)O)cc1`, the inhibition in test [7] came to 28%; in test [8] it was 54.8%. For the same compound, in test [6], the MIC came out at 50 µM (≈ 8.91 µg/mL).
Take `CN(C)c1ccccc1C(=O)O`: the inhibition result in test [5] is “inactive”.
For `CN(C)c1ccc(Br)cc1`, the inhibition entry in test [5] is “inactive”.
For the compound `CC(C)c1ccc(C(=O)O)cc1`, the MIC in test [6] was 200 µM (≈ 32.8 µg/mL).
Still for that read-out and setting: the result for `CNc1ccc(C(=O)O)cc1` reads 400 µM (≈ 60.5 µg/mL).
